{"source": "paper PMC6978363", "about": "“Chaperone mediated detection of small molecule target binding in cells” (Nature Communications, 2020)", "assay_in_all_cases": "biochemical", "key": {"[1]": {"target": "AKT1 (Homo sapiens, UniProt P31749)", "details": "read-out: % Inhibition (at 10mM)"}, "[2]": {"target": "ALK (Homo sapiens, UniProt Q9UM73)", "details": "read-out: % Inhibition (at 10mM)"}, "[3]": {"target": "BrSK1 (Homo sapiens, UniProt Q8TDC3)", "details": "read-out: % Inhibition (at 10mM)"}, "[4]": {"target": "CDK1/cyclinB (Homo sapiens, UniProt P06493)", "details": "read-out: % Inhibition (at 10mM)"}, "[5]": {"target": "T1, CHK2 (Homo sapiens, UniProt O96017)", "T1 construct": "gene CHEK2", "details": "read-out: % Inhibition (at 10mM)"}, "[6]": {"target": "T2, CaMKII_beta (Homo sapiens, UniProt Q13554)", "T2 construct": "gene CAMK2B", "details": "read-out: % Inhibition (at 10mM)"}, "[7]": {"target": "T3, DMPK2 (Homo sapiens, UniProt Q6DT37)", "T3 construct": "gene CDC42BPG", "details": "read-out: % Inhibition (at 10mM)"}, "[8]": {"target": "T4, DNA-PK (Homo sapiens, UniProt P78527)", "T4 construct": "gene PRKDC", "details": "read-out: % Inhibition (at 10mM)"}, "[9]": {"target": "T5, ERK1 (Homo sapiens, UniProt P27361)", "T5 construct": "gene MAPK3", "details": "read-out: % Inhibition (at 10mM)"}, "[10]": {"target": "T6, ERK2 (Homo sapiens, UniProt P28482)", "T6 construct": "gene MAPK1", "details": "read-out: % Inhibition (at 10mM)"}, "[11]": {"target": "T7, ERK5 (Homo sapiens, UniProt Q13164)", "T7 construct": "gene MAPK7", "details": "read-out: % Inhibition (at 10mM)"}, "[12]": {"target": "EphA4 (Homo sapiens, UniProt P54764)", "details": "read-out: % Inhibition (at 10mM)"}, "[13]": {"target": "FGFR3 (Homo sapiens, UniProt P22607)", "details": "read-out: % Inhibition (at 10mM)"}, "[14]": {"target": "Fes (Homo sapiens, UniProt P07332)", "sequence (P07332 whole entry)": "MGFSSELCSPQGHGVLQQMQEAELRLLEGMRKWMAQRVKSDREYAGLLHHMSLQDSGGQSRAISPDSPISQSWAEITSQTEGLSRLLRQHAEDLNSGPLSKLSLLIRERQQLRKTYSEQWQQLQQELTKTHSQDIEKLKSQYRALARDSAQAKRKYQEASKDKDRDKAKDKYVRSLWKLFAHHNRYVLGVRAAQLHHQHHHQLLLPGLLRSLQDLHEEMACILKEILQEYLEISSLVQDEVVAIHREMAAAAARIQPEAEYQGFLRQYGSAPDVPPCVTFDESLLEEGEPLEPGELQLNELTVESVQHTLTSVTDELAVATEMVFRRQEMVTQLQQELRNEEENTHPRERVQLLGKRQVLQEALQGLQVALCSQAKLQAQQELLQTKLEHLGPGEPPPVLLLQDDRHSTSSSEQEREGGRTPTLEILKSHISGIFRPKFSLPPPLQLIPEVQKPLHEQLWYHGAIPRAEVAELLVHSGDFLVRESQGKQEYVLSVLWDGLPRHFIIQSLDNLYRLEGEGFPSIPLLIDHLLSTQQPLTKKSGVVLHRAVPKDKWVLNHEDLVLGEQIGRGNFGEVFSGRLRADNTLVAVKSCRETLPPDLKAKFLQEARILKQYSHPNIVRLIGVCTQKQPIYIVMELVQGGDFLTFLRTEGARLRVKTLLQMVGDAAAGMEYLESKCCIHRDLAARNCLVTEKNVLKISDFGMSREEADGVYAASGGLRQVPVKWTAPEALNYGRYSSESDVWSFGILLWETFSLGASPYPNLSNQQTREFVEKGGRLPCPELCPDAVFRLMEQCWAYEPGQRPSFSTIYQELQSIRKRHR", "details": "read-out: % Inhibition (at 10mM)"}, "[15]": {"target": "Fyn (Homo sapiens, UniProt P06241)", "details": "read-out: % Inhibition (at 10mM)"}, "[16]": {"target": "IGF1R (Homo sapiens, UniProt P08069)", "details": "read-out: % Inhibition (at 10mM)"}, "[17]": {"target": "IRAK4 (Homo sapiens, UniProt Q9NWZ3)", "sequence (Q9NWZ3 whole entry)": "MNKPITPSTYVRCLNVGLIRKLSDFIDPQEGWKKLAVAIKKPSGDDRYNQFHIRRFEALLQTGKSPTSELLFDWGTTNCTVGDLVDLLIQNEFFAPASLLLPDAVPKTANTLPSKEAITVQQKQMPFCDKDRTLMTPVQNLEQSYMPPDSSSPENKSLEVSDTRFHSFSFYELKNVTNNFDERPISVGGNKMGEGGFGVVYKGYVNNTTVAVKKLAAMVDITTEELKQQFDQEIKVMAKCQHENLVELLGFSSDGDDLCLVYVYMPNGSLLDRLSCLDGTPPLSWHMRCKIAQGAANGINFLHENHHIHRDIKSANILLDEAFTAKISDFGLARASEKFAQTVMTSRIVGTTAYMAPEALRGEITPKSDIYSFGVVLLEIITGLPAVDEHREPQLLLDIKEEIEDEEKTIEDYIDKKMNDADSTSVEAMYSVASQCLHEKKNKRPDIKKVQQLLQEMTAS", "details": "read-out: % Inhibition (at 10mM)"}, "[18]": {"target": "MAP4K4 (Homo sapiens, UniProt O95819)", "details": "read-out: % Inhibition (at 10mM)"}, "[19]": {"target": "MARK4 (Homo sapiens, UniProt Q96L34)", "sequence (Q96L34 whole entry)": "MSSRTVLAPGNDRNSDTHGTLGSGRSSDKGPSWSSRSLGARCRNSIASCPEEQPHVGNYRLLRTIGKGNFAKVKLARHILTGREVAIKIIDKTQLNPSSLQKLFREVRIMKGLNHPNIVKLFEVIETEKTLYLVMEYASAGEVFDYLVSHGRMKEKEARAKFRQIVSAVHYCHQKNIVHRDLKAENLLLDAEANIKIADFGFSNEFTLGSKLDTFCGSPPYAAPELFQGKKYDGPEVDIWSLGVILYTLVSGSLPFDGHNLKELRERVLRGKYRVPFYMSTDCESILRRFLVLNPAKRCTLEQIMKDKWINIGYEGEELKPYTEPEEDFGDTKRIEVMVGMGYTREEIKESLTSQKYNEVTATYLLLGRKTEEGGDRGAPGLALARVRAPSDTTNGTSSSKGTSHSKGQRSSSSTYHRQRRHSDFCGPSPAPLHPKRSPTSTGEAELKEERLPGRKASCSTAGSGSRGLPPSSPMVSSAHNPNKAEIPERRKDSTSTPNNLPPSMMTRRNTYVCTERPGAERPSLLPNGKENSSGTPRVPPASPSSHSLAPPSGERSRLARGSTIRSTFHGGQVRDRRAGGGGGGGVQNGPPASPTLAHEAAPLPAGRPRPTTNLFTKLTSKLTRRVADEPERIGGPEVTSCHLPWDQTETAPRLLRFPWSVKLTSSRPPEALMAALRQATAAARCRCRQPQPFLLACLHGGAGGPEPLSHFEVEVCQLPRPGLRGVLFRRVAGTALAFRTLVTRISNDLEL", "details": "read-out: % Inhibition (at 10mM)"}, "[20]": {"target": "T8, MSK1 (Homo sapiens, UniProt O75582)", "T8 construct": "gene RPS6KA5", "details": "read-out: % Inhibition (at 10mM)"}, "[21]": {"target": "Mink1 (Homo sapiens, UniProt Q8N4C8)", "details": "read-out: % Inhibition (at 10mM)"}, "[22]": {"target": "NEK1 (Homo sapiens, UniProt Q96PY6)", "details": "read-out: % Inhibition (at 10mM)"}, "[23]": {"target": "NEK7 (Homo sapiens, UniProt Q8TDX7)", "sequence (Q8TDX7 whole entry)": "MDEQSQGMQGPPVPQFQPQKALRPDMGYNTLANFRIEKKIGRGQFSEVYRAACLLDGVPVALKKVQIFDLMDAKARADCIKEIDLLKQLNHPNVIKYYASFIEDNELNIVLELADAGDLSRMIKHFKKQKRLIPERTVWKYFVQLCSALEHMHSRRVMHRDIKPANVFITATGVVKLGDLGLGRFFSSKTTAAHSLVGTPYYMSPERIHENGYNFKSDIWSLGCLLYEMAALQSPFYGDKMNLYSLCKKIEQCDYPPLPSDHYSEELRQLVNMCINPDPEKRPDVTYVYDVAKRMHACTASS", "details": "read-out: % Inhibition (at 10mM)"}, "[24]": {"target": "PASK (Homo sapiens, UniProt Q96RG2)", "details": "read-out: % Inhibition (at 10mM)"}, "[25]": {"target": "PIM3 (Homo sapiens, UniProt Q86V86)", "details": "read-out: % Inhibition (at 10mM)"}, "[26]": {"target": "T9, PKA (Homo sapiens, UniProt P17612)", "T9 construct": "gene PRKACA", "details": "read-out: % Inhibition (at 10mM)"}, "[27]": {"target": "T10, PKC_beta1 (Homo sapiens, UniProt P05771)", "T10 construct": "gene PRKCB; isoform beta1", "details": "read-out: % Inhibition (at 10mM)"}, "[28]": {"target": "T11, PKC_theta (Homo sapiens, UniProt Q04759)", "T11 construct": "gene PRKCQ", "T11 sequence (Q04759 whole entry)": "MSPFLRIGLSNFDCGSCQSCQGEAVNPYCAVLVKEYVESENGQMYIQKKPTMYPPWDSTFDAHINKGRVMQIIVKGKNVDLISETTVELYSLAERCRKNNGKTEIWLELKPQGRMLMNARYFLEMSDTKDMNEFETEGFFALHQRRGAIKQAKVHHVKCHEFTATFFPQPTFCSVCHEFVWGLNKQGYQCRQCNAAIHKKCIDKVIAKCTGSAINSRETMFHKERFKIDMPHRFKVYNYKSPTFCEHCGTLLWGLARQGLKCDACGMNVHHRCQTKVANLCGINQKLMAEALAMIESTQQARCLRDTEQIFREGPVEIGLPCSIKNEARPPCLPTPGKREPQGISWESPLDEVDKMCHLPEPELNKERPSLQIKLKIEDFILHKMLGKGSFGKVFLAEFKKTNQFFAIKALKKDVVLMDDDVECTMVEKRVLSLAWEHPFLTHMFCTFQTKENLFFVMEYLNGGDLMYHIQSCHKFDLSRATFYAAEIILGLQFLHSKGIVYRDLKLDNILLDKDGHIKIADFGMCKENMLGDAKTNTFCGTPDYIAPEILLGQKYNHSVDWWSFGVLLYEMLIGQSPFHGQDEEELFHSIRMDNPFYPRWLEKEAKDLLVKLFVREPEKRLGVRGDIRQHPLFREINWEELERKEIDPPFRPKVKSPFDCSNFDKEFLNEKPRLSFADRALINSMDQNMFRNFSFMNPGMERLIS", "details": "read-out: % Inhibition (at 10mM)"}, "[29]": {"target": "PLK2 (Homo sapiens, UniProt Q9NYY3)", "details": "read-out: % Inhibition (at 10mM)"}, "[30]": {"target": "T12, PRKAA2_B1_G3 (Homo sapiens, UniProt P54646)", "T12 construct": "gene PRKAA2", "details": "read-out: % Inhibition (at 10mM)"}, "[31]": {"target": "T13, PhK_gamma1 (Homo sapiens, UniProt Q16816)", "T13 construct": "gene PHKG1", "details": "read-out: % Inhibition (at 10mM)"}, "[32]": {"target": "PrKX (Homo sapiens, UniProt P51817)", "sequence (P51817 whole entry)": "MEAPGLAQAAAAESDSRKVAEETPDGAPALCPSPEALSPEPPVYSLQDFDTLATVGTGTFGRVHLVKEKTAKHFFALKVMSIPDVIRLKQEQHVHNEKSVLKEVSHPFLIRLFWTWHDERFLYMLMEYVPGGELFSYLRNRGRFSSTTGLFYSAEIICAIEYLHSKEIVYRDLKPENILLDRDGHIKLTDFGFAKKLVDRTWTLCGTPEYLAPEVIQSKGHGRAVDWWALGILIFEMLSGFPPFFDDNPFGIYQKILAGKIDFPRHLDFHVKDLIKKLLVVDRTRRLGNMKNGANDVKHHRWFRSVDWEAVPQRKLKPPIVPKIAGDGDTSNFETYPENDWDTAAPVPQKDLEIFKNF", "details": "read-out: % Inhibition (at 10mM)"}, "[33]": {"target": "ROCK1 (Homo sapiens, UniProt Q13464)", "details": "read-out: % Inhibition (at 10mM)"}, "[34]": {"target": "T14, Tie2 (Homo sapiens, UniProt Q02763)", "T14 construct": "gene TEK", "details": "read-out: % Inhibition (at 10mM)"}, "[35]": {"target": "T15, Yes (Homo sapiens, UniProt P07947)", "T15 construct": "gene YES1", "T15 sequence (P07947 whole entry)": "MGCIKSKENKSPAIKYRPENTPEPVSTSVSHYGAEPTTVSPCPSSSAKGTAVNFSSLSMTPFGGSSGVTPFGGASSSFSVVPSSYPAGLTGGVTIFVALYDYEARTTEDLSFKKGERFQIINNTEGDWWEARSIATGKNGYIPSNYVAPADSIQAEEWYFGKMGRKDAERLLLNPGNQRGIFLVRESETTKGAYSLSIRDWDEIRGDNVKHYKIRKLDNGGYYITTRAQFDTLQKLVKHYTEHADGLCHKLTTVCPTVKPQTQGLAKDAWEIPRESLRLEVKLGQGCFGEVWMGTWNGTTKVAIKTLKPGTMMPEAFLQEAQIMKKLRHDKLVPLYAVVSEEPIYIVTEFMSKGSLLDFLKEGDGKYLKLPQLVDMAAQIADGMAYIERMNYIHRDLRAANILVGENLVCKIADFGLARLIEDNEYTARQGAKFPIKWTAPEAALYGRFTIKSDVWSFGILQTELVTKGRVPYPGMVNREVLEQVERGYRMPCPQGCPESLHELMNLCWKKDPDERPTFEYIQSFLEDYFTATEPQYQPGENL", "details": "read-out: % Inhibition (at 10mM)"}, "[36]": {"target": "DYRK1B (Homo sapiens, UniProt Q9Y463)", "description": "(§1) The detection of EGFR (another HER family member) was ambiguous because the peptides used to detect it were also present in ERBB2."}, "[37]": {"target": "LTK (Homo sapiens, UniProt P29376)", "sequence (P29376 whole entry)": "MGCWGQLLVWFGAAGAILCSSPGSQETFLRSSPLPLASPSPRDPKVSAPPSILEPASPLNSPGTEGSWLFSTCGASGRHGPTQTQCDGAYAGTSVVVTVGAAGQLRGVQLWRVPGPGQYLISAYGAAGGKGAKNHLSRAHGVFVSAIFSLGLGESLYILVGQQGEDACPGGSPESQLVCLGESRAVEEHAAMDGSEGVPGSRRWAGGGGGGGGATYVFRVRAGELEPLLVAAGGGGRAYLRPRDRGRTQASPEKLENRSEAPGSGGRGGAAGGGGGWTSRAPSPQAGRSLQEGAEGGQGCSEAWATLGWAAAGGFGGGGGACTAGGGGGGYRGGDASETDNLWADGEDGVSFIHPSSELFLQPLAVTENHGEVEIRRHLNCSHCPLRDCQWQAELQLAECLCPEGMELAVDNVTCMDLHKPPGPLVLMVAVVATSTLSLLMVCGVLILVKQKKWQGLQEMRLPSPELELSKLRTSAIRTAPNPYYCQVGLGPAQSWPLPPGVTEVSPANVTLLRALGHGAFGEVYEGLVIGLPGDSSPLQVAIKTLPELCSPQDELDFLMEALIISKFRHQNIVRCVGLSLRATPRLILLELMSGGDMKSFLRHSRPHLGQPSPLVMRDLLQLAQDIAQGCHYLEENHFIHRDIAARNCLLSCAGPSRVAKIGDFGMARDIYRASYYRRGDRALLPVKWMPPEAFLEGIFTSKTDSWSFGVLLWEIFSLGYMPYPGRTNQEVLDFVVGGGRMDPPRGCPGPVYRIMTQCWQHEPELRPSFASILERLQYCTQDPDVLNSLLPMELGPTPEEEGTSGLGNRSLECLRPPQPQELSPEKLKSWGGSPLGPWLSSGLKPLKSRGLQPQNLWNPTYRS", "description": "as §1"}}, "data": [{"compound": "CC(C)(O)CC(=O)NCCn1ccc2ncnc(Nc3ccc(Oc4cccc(C(F)(F)F)c4)c(Cl)c3)c21", "note": "[TAK-285]", "values": [{"measurement": "inhibition", "setting": "[1]", "result": 1.5, "unit": "%"}, {"measurement": "inhibition", "setting": "[2]", "result": 8.5, "unit": "%"}, {"measurement": "inhibition", "setting": "[3]", "result": 5, "unit": "%"}, {"measurement": "inhibition", "setting": "[4]", "result": 0.5, "unit": "%"}, {"measurement": "inhibition", "setting": "[5]", "result": 20, "unit": "%"}, {"measurement": "inhibition", "setting": "[6]", "result": 24.5, "unit": "%"}, {"measurement": "inhibition", "setting": "[7]", "result": 2, "unit": "%"}, {"measurement": "inhibition", "setting": "[8]", "result": 11.5, "unit": "%"}, {"measurement": "inhibition", "setting": "[9]", "result": 3, "unit": "%"}, {"measurement": "inhibition", "setting": "[10]", "result": 12.5, "unit": "%"}, {"measurement": "inhibition", "setting": "[11]", "result": 0.5, "unit": "%"}, {"measurement": "inhibition", "setting": "[12]", "result": 9, "unit": "%"}, {"measurement": "inhibition", "setting": "[13]", "result": -6, "unit": "%"}, {"measurement": "inhibition", "setting": "[14]", "result": 15.5, "unit": "%"}, {"measurement": "inhibition", "setting": "[15]", "result": 53, "unit": "%"}, {"measurement": "inhibition", "setting": "[16]", "result": 5, "unit": "%"}, {"measurement": "inhibition", "setting": "[17]", "result": 6, "unit": "%"}, {"measurement": "inhibition", "setting": "[18]", "result": -0.5, "unit": "%"}, {"measurement": "inhibition", "setting": "[19]", "result": 3.5, "unit": "%"}, {"measurement": "inhibition", "setting": "[20]", "result": 2.5, "unit": "%"}, {"measurement": "inhibition", "setting": "[21]", "result": 7, "unit": "%"}, {"measurement": "inhibition", "setting": "[22]", "result": 1.5, "unit": "%"}, {"measurement": "inhibition", "setting": "[23]", "result": 7, "unit": "%"}, {"measurement": "inhibition", "setting": "[24]", "result": 2.5, "unit": "%"}, {"measurement": "inhibition", "setting": "[25]", "result": 1, "unit": "%"}, {"measurement": "inhibition", "setting": "[26]", "result": 2.5, "unit": "%"}, {"measurement": "inhibition", "setting": "[27]", "result": 5, "unit": "%"}, {"measurement": "inhibition", "setting": "[28]", "result": 12, "unit": "%"}, {"measurement": "inhibition", "setting": "[29]", "result": 2.5, "unit": "%"}, {"measurement": "inhibition", "setting": "[30]", "result": 4, "unit": "%"}, {"measurement": "inhibition", "setting": "[31]", "result": 7.5, "unit": "%"}, {"measurement": "inhibition", "setting": "[32]", "result": 6.5, "unit": "%"}, {"measurement": "inhibition", "setting": "[33]", "result": -1.5, "unit": "%"}, {"measurement": "inhibition", "setting": "[34]", "result": -6, "unit": "%"}, {"measurement": "inhibition", "setting": "[35]", "result": 83, "unit": "%"}, {"measurement": "inhibition at 10 µM", "setting": "[36]", "result": 3, "unit": "%"}, {"measurement": "inhibition at 10 µM", "setting": "[37]", "result": 0.5, "unit": "%"}]}]}
